Measured values taken from US20250326790A1, “PEPTIDES BINDING TO HYPOXIA INDUCIBLE FACTORS AND THEIR USE” (UNIVERSITY OF SOUTHAMPTON, priority 2021, published 2025).
*1 amine or outer side, *2 acyl side, *3 side chain or, on linkers, in order; H or OH if unused. Where a SMILES comes first, the peptide text is derived from it. [ ]: non-standard residue; d: D form. Phe(4-I) = N[C@@H](Cc1ccc(I)cc1)C(=O)O; hLeu = CC(C)CC[C@H](N)C(=O)O; CO = O=C([*:1])[*:2]

Target: recombinantly expressed PAS-B domain of HIF-1α (Homo sapiens (Human), UniProt Q16665)
Experiment: MST binding affinity to PAS-B domain of HIF-1α
Details: microscale thermophoresis, 50 nM labelled protein, 10% DMSO
Description: MST experiments were performed on a Monolith NT.115 system (Nanotemper Technologies GmbH), in assay buffer containing 50 nM labelled protein, 10% DMSO and 0.05% TWEEN-20. MST measurements were performed using 50% LED and 50% MST power.

recombinantly expressed PAS-B domain of HIF-1α, sequence (Q16665 228-298): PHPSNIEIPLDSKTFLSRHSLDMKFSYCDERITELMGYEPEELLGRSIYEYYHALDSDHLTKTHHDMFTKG

Going from `CNC(=O)N[C@@H](CCC(C)C)C(=O)N[C@@H](Cc1ccc(I)cc1)C(=O)N[C@@H](CS)C(N)=O` [Example 5] ({NHMe-CO}-[hLeu]-[Phe(4-I)]-Cys-NH2) to `Cc1c(S(=O)(=O)N[C@@H](CCC(C)C)C(=O)N[C@@H](Cc2ccc(I)cc2)C(=O)N[C@@H](CS)C(N)=O)sc2ccc(Cl)cc12` [Example 28], the Kd falls from > 50 µM to 8 µM. The second binds more tightly here.

Going from `CC(C)CC[C@H](NS(=O)(=O)c1ccc(Cl)s1)C(=O)N[C@@H](Cc1ccc(I)cc1)C(=O)N[C@@H](CS)C(=O)NCCCCCN` [Example 40] to `CC(C)CC[C@H](NS(=O)(=O)c1cc(Cl)c(Cl)s1)C(=O)N[C@@H](Cc1ccc(I)cc1)C(=O)N[C@@H](CC(N)=O)C(=O)NCCCCl` [Example 58], the Kd rises from 100 µM to > 500 µM. The first binds more tightly here.

`CC(C)CC[C@H](NS(=O)(=O)c1cc(Cl)c(Cl)s1)C(=O)N(C)[C@@H](Cc1ccc(I)cc1)C(=O)N[C@@H](CN)C(=O)NCCCCl` [Example 59] and `CC(C)CC[C@H](NS(=O)(=O)c1cc(Cl)c(Cl)s1)C(=O)N(C)[C@@H](Cc1ccc(I)cc1)C(=O)N[C@@H](CN1CCOCC1)C(=O)NCCCCl` [Example 67] cannot be ordered by Kd: > 500 µM for the first, > 500 µM for the second.

`CC(C)CC[C@H](NS(=O)(=O)c1cc(Cl)c(Cl)s1)C(=O)N[C@@H](Cc1ccc(I)cc1)C(=O)N[C@@H](CC(F)(F)F)C(=O)NCCCCl` [Example 66] and `CNC[C@H](NC(=O)[C@H](Cc1ccc(I)cc1)NC(=O)[C@H](CCC(C)C)NS(=O)(=O)c1cc(Cl)c(Cl)s1)C(=O)NCCCCl` [Example 72] cannot be ordered by Kd: > 125 µM for the first, > 500 µM for the second.

For `CC(C)CC[C@H](NS(=O)(=O)c1cc(Cl)c(Cl)s1)C(=O)N[C@@H](Cc1ccc(I)cc1)C(=O)N[C@@H](CS(N)(=O)=O)C(=O)NCCCCl` [Example 68], the Kd was > 500 µM.
